The source made the active and inactive calls.
Key:
[1] = target: Peroxisome proliferator-activated receptor gamma/Nuclear receptor coactivator 3 (Homo sapiens, UniProt P37231); test: TR-FRET dose response biochemical High Throughput Screening assay for agonists of the steroid receptor coactivator 3 (SRC-3) recruitment by the peroxisome proliferator-activated receptor gamma (PPAR gamma): non-selective agonists. [Related pubchem assays: 1301 (Confirmation screen.), 1048 (Primary screen.)]; assay type: functional
[2] = target: Peroxisome proliferator-activated receptor gamma/Nuclear receptor coactivator 2 (Homo sapiens, UniProt P37231); test: (§1) TR-FRET dose response biochemical High Throughput Screening assay for agonists of the steroid receptor coactivator 2 (SRC-2) recruitment by the peroxisome proliferator-activated receptor gamma (PPAR gamma): non-selective agonists. [Related pubchem assays: 1297, 1032 ]; assay type: functional
[3] = target: Peroxisome proliferator-activated receptor gamma/Nuclear receptor coactivator 1 (Homo sapiens, UniProt P37231); test: as §1, with “1 (SRC-1)” for “2 (SRC-2)”, “assays (depositor defined):AID1300, AID1808, AID504735, AID631]” for “assays: 1297, 1032 ]”; assay type: protein assay
Cytochrome P450 2D6 = Cytochrome P450 2D6 (Homo sapiens, UniProt P10635);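 note: CYP2D6 member of a cytochrome P450 panel assay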
Cytochrome P450 1A2 = target: T1, Cytochrome P450 1A2 (Homo sapiens, UniProt P05177);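 note: PubChem cytochrome P450 panel assay, CYP1A2 panel member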
T1 sequence (P05177 whole entry): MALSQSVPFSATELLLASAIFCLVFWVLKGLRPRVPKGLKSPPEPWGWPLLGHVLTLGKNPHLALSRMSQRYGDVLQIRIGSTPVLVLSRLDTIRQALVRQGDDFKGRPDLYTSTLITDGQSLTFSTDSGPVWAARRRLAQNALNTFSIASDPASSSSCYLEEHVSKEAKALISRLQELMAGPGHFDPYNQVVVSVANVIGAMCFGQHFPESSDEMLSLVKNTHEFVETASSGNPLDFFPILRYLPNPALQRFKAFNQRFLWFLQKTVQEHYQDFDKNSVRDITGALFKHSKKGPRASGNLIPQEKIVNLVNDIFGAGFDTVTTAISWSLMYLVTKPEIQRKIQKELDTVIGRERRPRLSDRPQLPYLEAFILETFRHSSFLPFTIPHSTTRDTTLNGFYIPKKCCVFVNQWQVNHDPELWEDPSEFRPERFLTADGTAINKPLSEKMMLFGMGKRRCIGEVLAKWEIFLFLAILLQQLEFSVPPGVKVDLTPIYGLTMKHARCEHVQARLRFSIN

[4] = HIV-1 AD8 envelope cell-cell fusion blockers – cherry-pick, dose response (AID 652062); assay type: functional, cell-based;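 note: luciferase signal from cell-cell fusion driven by HIV-1 clade B AD8 Env; potency is for inhibitors of fusion seen as a drop in luminescence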
[5] = HEK-293T viability loss after treatment – luminescence, T-cell screen hits, cytotoxicity control for TCR NF-kB inhibitor project, dose response (AID 489026); assay type: functional, cell-based;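 note: cells exposed to compound about 14 hours before the viability readout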
[6] = blockers of HIV-1 ZM109 envelope-driven cell-cell fusion – HeLa effector, CEM target cells, luciferase, cherry-pick, dose response (AID 652058); assay type: functional, cell-based;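 note: luciferase signal from HIV-1 Env mediated cell-cell fusion of effector and target cells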
[7] = Luminescence Cell-Based Dose Retest to Confirm Inhibitors of Cancer Stem Cells. [Related pubchem assays (depositor defined):AID2717, AID2721]; assay type: functional; conditions: Homo sapiens
[8] = off-target signal loss in HeLa-CEM21 co-culture – HeLa F-luc CTL cells, cherry-picked, counter-screen for HIV-1 Env fusion inhibitor project, dose response (AID 652040); assay type: functional, cell-based;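 note: potency for signal decrease marking cytotoxic or nonspecific inhibition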
[9] = blockers of HIV-1 envelope-mediated cell-cell fusion – cherry-pick, dose response (AID 652057); assay type: functional, cell-based
[10] = target: Voltage-gated inwardly rectifying potassium channel KCNH2 (Homo sapiens, UniProt Q12809); conditions: Potency;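 note: confirmatory quantitative high-throughput screen measuring inhibition of hERG channel activity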
[11] = NIH3T3 cell viability loss – ATP luminescence, mouse fibroblasts, counter-screen, dose response (AID 2010); assay type: functional, cell-based;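 note: cells exposed to compound for about 90 hours before reading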
[12] = Trypanosoma cruzi growth suppression in host cells – NIH3T3 host cells, beta-gal luminescence, confirmation (AID 2044); assay type: functional, cell-based;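 note: intracellular parasites grown in NIH/3T3 mouse fibroblasts as host cells; luminescent beta-galactosidase reporter signal from transgenic T. cruzi replicating inside host cells; inhibitors lower the luminescence signal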
[13] = target: T2, Microphthalmia-associated transcription factor (Homo sapiens, UniProt O75030); test: reducers of TRPM1 reporter luminescence, concentration series – cell-based, SK-MEL-5, cherry-picked, set 3, MITF inhibitor project, dose response (AID 493073); assay type: functional;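 note: SK-MEL-5 melanoma cells with luciferase driven by the MITF target TRPM1 promoter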
T2 sequence (O75030 whole entry): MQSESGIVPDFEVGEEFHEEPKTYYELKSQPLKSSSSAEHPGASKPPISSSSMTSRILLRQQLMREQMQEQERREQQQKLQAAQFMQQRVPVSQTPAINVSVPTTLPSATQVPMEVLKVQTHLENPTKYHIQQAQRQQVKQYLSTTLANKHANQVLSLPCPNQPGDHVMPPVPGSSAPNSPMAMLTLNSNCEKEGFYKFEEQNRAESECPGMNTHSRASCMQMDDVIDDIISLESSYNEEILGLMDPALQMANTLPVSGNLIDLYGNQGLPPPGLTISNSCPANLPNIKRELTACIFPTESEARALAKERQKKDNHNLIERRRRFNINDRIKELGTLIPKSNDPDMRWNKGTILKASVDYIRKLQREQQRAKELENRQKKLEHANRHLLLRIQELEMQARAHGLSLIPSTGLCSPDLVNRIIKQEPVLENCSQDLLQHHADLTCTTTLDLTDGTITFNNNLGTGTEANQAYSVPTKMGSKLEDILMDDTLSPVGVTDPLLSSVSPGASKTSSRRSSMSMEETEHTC

Insulin-degrading enzyme [14] = target: T3, Insulin-degrading enzyme (Homo sapiens, UniProt P14735); test: recombinant IDE activation, cell-free – biochemical, fluorescence polarization, counter-screen for IDE activator project, dose response (AID 588681)
T3 sequence (P14735 whole entry): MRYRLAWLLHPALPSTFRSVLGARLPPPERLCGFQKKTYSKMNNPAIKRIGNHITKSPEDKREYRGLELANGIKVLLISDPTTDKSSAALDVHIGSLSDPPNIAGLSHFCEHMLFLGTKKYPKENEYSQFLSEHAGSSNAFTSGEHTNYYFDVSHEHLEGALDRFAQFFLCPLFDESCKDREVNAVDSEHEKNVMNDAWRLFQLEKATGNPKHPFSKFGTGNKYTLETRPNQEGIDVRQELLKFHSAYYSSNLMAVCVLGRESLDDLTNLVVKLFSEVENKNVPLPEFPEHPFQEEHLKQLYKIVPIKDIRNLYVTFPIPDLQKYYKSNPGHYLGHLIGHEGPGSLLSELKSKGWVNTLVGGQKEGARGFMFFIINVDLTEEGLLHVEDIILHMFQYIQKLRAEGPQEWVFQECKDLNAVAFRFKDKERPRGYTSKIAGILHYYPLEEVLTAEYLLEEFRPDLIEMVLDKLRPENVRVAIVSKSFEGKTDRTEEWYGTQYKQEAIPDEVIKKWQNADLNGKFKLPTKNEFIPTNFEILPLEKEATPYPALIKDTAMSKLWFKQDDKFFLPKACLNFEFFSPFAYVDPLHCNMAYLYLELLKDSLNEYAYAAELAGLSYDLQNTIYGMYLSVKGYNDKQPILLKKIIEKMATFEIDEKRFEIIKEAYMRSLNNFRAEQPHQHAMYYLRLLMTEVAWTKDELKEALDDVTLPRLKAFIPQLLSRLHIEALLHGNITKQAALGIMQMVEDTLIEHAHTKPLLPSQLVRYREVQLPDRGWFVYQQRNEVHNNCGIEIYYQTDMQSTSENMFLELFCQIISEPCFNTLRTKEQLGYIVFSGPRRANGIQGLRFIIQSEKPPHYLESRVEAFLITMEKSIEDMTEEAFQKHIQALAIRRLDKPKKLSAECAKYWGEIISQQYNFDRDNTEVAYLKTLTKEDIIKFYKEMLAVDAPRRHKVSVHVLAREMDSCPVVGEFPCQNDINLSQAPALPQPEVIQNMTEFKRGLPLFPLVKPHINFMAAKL

HEK293 [15] = test: membrane integrity loss in HEK cells – cell-based, fluorescence, cytotoxicity control for IDE activator project, dose response (AID 588440); assay type: functional; conditions: Homo sapiens;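 note: cytotoxicity by LDH release measuring loss of membrane integrity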
Insulin-degrading enzyme [16] = target: T3, Insulin-degrading enzyme; test: cellular IDE activation of Abeta substrate cleavage – fluorescence polarization, HEK cells, dose response (AID 588439); assay type: functional, cell-based
HEK293 [17] = test: optical interference in Abeta FP readout, dose response, artefact control for IDE activator project, biochemical, fluorescence polarization (AID 588442); assay type: functional, cell-based; conditions: Homo sapiens
SUMO-activating enzyme [18] = target: T4, SUMO-activating enzyme (Homo sapiens, UniProt Q9UBT2); test: blockers of UBC9-mediated SUMO conjugation – biochemical, AlphaScreen, SUMOylation inhibitor project, confirmation (AID 2018); assay type: functional
SUMO-activating enzyme [19] = target: T4, SUMO-activating enzyme; test: blockers of SAE1/SAE2–UBC9 SUMO transfer – biochemical, HTRF, uHTS, primary screen (AID 2006); assay type: protein-complex assay
Vero [20] = test: mammalian cell viability reduction – secondary assay, cytotoxicity control for West Nile virus antiviral project, dose response (AID 1650); assay type: functional; conditions: Chlorocebus sabaeus
[21] = target: Induced myeloid leukemia cell differentiation protein Mcl-1 (Homo sapiens, UniProt Q07820); assay type: functional
[22] = tested on: Streptococcus sp. 'group A'; test: Streptococcus pyogenes SK(-)GAS viability under kanamycin – luminescence, BacTiterGlo, confirmation, counter-screen for streptokinase expression inhibitor project, dose response (AID 1900); assay type: functional, organism-based
Vero [23] = test: viability of Vero cells under compound – cytotoxicity control for flavivirus capping enzyme inhibitors (AID 588742); assay type: functional; conditions: Chlorocebus sabaeus
Streptokinase A = target: T5, Streptokinase A (Streptococcus pyogenes serotype M1, UniProt P10520); test: viability-normalized secreted streptokinase activity reduction – plasminogen activation absorbance, OD405, dose response (AID 1914); assay type: functional, Streptococcus pyogenes M1 GAS;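 note: secreted streptokinase activity via plasminogen activation per viability signal from cell pellet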
T5 sequence (P10520 whole entry): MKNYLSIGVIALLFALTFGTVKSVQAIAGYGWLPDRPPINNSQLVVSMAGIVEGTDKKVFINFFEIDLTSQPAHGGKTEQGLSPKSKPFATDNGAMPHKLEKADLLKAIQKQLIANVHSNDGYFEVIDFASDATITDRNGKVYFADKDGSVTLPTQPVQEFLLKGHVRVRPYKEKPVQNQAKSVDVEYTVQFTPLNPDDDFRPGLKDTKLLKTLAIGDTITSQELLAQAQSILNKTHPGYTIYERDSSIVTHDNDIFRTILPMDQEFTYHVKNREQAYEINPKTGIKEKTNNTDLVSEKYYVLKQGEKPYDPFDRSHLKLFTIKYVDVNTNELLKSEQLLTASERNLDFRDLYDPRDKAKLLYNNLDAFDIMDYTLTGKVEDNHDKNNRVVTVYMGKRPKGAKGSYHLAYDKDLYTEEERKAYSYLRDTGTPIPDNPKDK

Genome polyprotein = Genome polyprotein (dengue virus type 2, UniProt P29990); test: flavivirus cap methylation enzyme inhibition – biochemical, confirmation dose response, primary screen (AID 588689); assay type: functional
Streptococcus = test: GAS UMAA2166 growth inhibition – luminescence, BacTiterGlo, counter-screen for streptokinase expression inhibitor project, dose response (AID 1915); assay type: functional, organism-based;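 note: potency for reduction of bacterial viability or growth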
Cytochrome P450 3A4 = Cytochrome P450 3A4 (Homo sapiens, UniProt P08684);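 note: CYP3A4 tested as one member of a cytochrome P450 panel screen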
Cytochrome P450 2C9 = Cytochrome P450 2C9 (Homo sapiens, UniProt P11712)
Sequence of Cytochrome P450 2C9 (P11712 whole entry): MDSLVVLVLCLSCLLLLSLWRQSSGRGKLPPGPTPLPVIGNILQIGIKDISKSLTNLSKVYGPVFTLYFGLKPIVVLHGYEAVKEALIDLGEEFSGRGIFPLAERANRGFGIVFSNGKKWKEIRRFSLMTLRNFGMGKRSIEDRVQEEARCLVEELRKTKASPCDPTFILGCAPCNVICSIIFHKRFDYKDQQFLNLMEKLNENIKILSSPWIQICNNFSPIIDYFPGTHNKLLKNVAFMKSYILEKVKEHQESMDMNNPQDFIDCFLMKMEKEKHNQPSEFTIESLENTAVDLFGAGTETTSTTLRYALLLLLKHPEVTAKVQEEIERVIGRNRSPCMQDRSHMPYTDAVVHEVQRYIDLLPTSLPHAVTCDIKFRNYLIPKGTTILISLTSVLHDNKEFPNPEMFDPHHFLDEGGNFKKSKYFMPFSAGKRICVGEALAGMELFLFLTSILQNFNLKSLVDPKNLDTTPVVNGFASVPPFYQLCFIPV

Sequence of Voltage-gated inwardly rectifying potassium channel KCNH2 (Q12809 whole entry): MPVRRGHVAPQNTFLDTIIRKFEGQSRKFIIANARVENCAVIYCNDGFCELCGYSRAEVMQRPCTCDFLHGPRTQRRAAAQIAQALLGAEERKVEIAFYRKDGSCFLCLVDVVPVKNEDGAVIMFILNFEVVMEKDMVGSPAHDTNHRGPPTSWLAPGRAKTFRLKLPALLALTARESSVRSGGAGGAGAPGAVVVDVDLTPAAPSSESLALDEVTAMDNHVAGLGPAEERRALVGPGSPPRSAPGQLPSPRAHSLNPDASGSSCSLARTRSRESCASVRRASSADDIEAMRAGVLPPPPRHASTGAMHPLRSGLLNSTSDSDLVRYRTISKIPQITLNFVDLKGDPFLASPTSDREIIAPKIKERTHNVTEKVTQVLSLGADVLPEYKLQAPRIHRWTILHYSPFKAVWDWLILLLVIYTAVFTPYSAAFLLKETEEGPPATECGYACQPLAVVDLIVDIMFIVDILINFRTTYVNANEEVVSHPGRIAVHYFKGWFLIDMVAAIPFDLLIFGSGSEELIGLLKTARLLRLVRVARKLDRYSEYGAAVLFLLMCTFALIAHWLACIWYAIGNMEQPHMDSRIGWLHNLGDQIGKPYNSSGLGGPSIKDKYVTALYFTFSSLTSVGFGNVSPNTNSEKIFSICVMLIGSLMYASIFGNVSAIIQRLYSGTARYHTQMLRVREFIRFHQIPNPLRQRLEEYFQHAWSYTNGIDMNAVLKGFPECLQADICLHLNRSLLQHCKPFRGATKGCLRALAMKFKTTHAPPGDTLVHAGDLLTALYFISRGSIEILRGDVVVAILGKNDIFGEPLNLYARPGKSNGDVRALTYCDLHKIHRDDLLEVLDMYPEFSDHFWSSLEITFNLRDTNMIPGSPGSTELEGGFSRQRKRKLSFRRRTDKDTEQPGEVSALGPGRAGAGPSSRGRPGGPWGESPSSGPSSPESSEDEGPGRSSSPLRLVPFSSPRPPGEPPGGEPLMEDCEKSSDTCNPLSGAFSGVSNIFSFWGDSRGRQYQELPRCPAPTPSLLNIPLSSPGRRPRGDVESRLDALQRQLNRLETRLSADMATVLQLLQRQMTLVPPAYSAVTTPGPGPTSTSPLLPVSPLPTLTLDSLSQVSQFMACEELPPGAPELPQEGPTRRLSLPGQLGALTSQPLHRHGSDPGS
T4 sequence (Q9UBE0 whole entry): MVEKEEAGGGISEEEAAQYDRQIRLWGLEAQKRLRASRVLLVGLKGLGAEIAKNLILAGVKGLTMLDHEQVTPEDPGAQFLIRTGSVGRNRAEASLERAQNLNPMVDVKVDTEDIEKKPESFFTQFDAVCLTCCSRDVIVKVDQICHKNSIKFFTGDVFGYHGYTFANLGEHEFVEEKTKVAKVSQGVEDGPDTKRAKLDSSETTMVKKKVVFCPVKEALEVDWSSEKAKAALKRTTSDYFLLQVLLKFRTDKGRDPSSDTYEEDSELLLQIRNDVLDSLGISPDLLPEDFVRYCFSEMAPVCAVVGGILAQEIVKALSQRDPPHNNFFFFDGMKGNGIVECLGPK
T4 sequence (Q9UBT2 whole entry): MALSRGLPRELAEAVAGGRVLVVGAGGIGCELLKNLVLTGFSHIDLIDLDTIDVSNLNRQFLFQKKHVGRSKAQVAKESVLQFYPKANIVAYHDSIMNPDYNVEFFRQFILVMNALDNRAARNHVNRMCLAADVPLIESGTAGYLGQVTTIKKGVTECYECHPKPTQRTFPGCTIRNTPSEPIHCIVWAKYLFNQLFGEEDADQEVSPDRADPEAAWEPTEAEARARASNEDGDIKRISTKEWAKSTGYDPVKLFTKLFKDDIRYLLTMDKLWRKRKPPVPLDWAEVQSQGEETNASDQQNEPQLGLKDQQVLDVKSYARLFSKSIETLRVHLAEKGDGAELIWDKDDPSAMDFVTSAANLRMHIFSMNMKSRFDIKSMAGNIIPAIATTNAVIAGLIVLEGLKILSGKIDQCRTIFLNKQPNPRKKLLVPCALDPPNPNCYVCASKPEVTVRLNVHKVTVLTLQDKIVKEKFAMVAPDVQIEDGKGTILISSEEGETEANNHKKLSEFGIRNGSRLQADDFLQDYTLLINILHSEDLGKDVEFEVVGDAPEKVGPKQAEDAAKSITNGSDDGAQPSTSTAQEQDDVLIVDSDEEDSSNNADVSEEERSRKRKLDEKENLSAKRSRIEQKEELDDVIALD
Sequence of Induced myeloid leukemia cell differentiation protein Mcl-1 (Q07820 whole entry): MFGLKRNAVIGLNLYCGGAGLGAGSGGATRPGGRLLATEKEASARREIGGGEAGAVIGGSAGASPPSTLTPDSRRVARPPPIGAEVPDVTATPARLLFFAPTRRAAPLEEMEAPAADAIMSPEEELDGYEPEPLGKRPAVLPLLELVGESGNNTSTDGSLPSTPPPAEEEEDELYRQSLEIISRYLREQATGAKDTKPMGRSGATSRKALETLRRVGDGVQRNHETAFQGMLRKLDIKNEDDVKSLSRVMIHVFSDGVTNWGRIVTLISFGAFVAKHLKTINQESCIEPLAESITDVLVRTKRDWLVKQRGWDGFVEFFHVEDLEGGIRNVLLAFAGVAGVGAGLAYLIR
Sequence of Cytochrome P450 3A4 (P08684 whole entry): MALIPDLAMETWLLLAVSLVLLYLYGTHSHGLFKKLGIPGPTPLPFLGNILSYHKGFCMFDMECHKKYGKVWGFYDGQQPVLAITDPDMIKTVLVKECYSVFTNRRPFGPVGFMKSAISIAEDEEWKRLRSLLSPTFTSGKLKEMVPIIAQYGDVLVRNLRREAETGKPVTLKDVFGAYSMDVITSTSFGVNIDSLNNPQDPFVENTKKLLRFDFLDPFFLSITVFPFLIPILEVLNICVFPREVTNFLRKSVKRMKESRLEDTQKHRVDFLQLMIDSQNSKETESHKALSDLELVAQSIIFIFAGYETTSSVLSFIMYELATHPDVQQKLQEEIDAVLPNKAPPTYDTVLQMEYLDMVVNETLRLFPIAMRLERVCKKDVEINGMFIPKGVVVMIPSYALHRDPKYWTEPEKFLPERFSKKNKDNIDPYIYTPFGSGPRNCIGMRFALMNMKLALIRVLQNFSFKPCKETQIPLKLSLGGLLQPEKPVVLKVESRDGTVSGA
Sequence of Genome polyprotein (P29990 2492-3391 limits assumed): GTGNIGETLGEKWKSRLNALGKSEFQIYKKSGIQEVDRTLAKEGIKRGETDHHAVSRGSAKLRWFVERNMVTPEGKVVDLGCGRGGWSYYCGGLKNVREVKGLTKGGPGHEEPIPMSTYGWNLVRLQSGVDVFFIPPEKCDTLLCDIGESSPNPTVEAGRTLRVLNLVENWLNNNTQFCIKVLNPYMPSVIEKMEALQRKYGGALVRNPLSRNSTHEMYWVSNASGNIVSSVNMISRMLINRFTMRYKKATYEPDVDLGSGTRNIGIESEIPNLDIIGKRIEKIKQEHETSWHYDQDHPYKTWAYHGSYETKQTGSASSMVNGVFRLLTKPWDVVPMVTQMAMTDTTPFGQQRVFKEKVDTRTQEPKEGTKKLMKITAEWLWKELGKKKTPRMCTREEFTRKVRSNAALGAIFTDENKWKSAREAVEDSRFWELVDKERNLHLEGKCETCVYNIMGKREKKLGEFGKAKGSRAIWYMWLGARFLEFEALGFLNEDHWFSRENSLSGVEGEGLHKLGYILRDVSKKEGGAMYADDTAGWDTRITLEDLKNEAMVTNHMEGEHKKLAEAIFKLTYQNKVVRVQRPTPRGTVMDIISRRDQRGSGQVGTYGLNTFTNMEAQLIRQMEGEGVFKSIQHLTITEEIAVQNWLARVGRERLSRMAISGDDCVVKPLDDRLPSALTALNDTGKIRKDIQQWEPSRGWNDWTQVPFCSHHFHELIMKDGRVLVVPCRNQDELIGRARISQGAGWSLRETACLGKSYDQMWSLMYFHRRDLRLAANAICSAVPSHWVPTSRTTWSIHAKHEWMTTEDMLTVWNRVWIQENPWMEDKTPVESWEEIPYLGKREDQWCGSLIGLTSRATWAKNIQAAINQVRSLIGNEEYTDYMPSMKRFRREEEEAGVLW
Sequence of Cytochrome P450 2D6 (P10635 whole entry): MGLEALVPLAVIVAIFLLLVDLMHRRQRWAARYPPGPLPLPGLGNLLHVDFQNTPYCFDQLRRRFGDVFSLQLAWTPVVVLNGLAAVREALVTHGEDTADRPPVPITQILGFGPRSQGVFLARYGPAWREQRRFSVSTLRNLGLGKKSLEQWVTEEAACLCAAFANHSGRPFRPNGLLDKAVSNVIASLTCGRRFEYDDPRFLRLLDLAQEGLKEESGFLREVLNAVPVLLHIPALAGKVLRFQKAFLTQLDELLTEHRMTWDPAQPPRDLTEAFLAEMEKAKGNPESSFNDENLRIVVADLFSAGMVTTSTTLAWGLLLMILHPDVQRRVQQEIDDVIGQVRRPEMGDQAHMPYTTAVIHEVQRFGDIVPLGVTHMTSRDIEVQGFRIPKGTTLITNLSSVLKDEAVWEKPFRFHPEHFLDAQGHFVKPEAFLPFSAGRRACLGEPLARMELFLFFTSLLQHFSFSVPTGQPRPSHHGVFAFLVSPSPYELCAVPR

CCOc1ccc2c(c1)nc(SCC(=O)c1ccc(Br)s1)n2C
EC50 [1]: > 79.4 µM (not active) | EC50 [2]: 22.9 µM (not active) | EC50 [3]: > 79.4 µM (inactive) | AC50 (Cytochrome P450 2D6): 12.6 µM (inconclusive)

O=C(Nc1ccc(C(F)(F)F)cc1)c1cccn(Cc2ccc3c(c2)OC(F)(F)O3)c1=O
AC50 (Cytochrome P450 1A2): 25.1 µM (inconclusive) | AC50 [4]: 6 µM (active) | IC50 [5]: > 80 µM (inactive) | AC50 [6]: 0.59 µM (active) | AC50 [7]: 3.68 µM (active) | AC50 [8]: 50.7 µM (active) | AC50 [9]: 22.5 µM (active)

CN1CCC23CCCC[C@H]2C1Cc1ccc(O)cc13 (stereo not given in full)
AC50 [10]: 2.51 µM (inconclusive)

CN(Cc1ccccc1)C1=CC(=[N+]2CCCC2)CC(C)(C)C1
EC50 [11]: > 60 µM (not active) | EC50 [12]: 0.171 µM (active) | IC50 [5]: > 80 µM (inactive) | AC50 [13]: 1.55 µM (active)

C=C(C)COc1ccc(-c2[nH]nc(C)c2-c2ccc(OC)c(OC)c2)c(O)c1
IC50 [5]: 44.6 µM (inactive) | AC50 [7]: 1.36 µM (active)

O=C(Nc1ccc(S(=O)(=O)N2CCCCC2)cc1)c1ccc(CN2CCOCC2)cc1
IC50 [5]: 27.2 µM (inactive)

OC(CNC1CCCCC1)C(F)(F)F (stereo not given)
EC50 (Insulin-degrading enzyme [14]): > 54.7 µM (inactive) | IC50 (HEK293 [15]): > 89.1 µM (inactive) | EC50 (Insulin-degrading enzyme [16]): > 54.7 µM (inactive) | EC50 (HEK293 [17]): > 55.9 µM (inactive)

CC1=C(C(=O)Nc2ccccc2)C(c2ccc(C)cc2)NC(Nc2nc3ccccc3o2)=N1 (stereo not given)
IC50 (SUMO-activating enzyme [18]): 20.2 µM (active) | EC50 [11]: 22.3 µM (active) | IC50 (SUMO-activating enzyme [19]): 4.07 µM (active) | EC50 [12]: 0.982 µM (active) | CC50 (Vero [20]): > 100 µM (active)

N#Cc1c2nc3ccccc3nc2n2cc(NC(=O)c3ccc(F)cc3)ccc12
IC50 (SUMO-activating enzyme [18]): 1.8 µM (active) | IC50 [21]: 1.57 µM (active) | IC50 (SUMO-activating enzyme [19]): 2.96 µM (active)

CCN(c1ccccc1)S(=O)(=O)c1ccc(N2CCN(c3ccc(OC)cc3)CC2)nc1
EC50 (Insulin-degrading enzyme [14]): > 54.7 µM (inactive) | IC50 (HEK293 [15]): > 89.2 µM (inactive) | EC50 (Insulin-degrading enzyme [16]): > 54.7 µM (inactive) | EC50 (HEK293 [17]): > 55.9 µM (inactive)

Brc1ccc(Oc2ccc(Br)cc2Br)c(Br)c1
AC50 [10]: 17.8 µM (inconclusive)

C[C@H]1COC2=C1C(=O)C(=O)c1c2ccc2c1CCCC2(C)C [CRYPTOTANSHINONE]
EC50 [22]: 5.17 µM (active) | CC50 (Vero [23]): 33.4 µM (active) | EC50 (Streptokinase A): 14.8 µM (active) | IC50 (Genome polyprotein): 90.1 µM (active) | EC50 (Streptococcus): 14.1 µM (active)

C/C=C1/C(=O)C[C@H]2[C@@H]3CCC4=CC(=O)CC[C@]4(C)[C@H]3CC[C@]12C [E-GUGGULSTERONE]
AC50 [10]: 17.8 µM (inconclusive)

COc1ccc(-n2nc(C(F)(F)F)cc2-c2ccc(Cl)cc2)cc1 [SC-560]
AC50 (Cytochrome P450 3A4): 39.8 µM (inconclusive) | AC50 (Cytochrome P450 2C9): 25.1 µM (inconclusive) | AC50 [10]: 31.6 µM (inconclusive)

— ChEMBL document CHEMBL1201862, “PubChem BioAssay data set” (2004)
